In PMC10746543, “Design principles for cyclin K molecular glue degraders” (Nature Chemical Biology, 2023):
“And” between values parts separate entries of the source, which are not always exact repeats. Equal values may be shown once. Read-outs that look alike come from different tables or passages of the source.

Tests used:
HEK293T cells = assay: Drug sensitivity assay (CellTiter-Glo viability) with or without MLN4924 pretreatment; assay type: cell-based, human; conditions: for EC50: Homo sapiens, HEK-293T, HEK293T viability, 72 h, compound alone, read-out: Cellular assays EC50; for EC50 / Toxicity rescue: Supplementary Table 2; for Toxicity rescue: MLN4924-mediated cytotoxicity rescue, 10 µM used where n.d.
How it was run: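 First, cells (HEK293T–Cas9, 0.15 × 10^6 ml^−1) are exposed to DMSO or 100 nM MLN4924. Next, drugs follow at 2 h. Finally, CellTiter-Glo is read at day 3 and normalised to DMSO.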

CDK12–cyclin K and DDB1 = target: T1, CDK12–cyclin K and DDB1 (Homo sapiens, UniProt Q16531+Q9NYV4, K965R); assay: TR-FRET ternary complex formation assay (compound titration); assay type: binding; conditions: for TR-FRET signal at compound concentration 4.68 nM / TR-FRET signal at compound concentration 21.6 nM / TR-FRET signal at compound concentration 36 nM / TR-FRET signal at compound concentration 79.2001 nM / TR-FRET signal at compound concentration 158.4 nM / TR-FRET signal at compound concentration 309.6 nM / TR-FRET signal at compound concentration 626.401 nM / TR-FRET signal at compound concentration 1252.8 nM / TR-FRET signal at compound concentration 2448 nM / TR-FRET signal at compound concentration 9936.01 nM / TR-FRET signal at compound concentration 20016 nM: raw replicate titration data; for TR-FRET signal at compound concentration: replicate titrations
T1 construct: His6–CDK12 (a.a. 713–1,052); full-length or beta-propeller B domain deletion (ΔBPB: a.a. 396–705 deleted) constructs of His6–DDB1ΔBPB, StrepII–Avi–DDB1, or His6–Spy–DDB1; made in house; host or cells: Trichoplusia ni High Five insect cells (baculovirus)
T1 sequence (Q9NYV4 713-1052 K965R): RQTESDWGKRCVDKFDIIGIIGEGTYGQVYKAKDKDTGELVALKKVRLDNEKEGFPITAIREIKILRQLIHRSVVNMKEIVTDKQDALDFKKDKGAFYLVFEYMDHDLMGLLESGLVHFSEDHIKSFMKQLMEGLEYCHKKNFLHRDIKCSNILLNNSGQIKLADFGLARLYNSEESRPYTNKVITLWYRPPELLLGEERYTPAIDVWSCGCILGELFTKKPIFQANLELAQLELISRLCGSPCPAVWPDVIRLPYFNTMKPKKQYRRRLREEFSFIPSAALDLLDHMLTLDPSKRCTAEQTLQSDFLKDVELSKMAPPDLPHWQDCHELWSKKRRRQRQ
T1 sequence (O75909 1-267 partner): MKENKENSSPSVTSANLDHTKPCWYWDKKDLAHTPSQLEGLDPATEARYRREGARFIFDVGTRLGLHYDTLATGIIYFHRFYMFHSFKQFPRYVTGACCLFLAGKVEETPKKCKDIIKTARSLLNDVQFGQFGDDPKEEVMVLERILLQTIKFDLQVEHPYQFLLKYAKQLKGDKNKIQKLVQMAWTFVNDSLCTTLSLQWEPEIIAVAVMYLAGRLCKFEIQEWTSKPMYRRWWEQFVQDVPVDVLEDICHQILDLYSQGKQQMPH
T1 sequence (Q16531 whole entry): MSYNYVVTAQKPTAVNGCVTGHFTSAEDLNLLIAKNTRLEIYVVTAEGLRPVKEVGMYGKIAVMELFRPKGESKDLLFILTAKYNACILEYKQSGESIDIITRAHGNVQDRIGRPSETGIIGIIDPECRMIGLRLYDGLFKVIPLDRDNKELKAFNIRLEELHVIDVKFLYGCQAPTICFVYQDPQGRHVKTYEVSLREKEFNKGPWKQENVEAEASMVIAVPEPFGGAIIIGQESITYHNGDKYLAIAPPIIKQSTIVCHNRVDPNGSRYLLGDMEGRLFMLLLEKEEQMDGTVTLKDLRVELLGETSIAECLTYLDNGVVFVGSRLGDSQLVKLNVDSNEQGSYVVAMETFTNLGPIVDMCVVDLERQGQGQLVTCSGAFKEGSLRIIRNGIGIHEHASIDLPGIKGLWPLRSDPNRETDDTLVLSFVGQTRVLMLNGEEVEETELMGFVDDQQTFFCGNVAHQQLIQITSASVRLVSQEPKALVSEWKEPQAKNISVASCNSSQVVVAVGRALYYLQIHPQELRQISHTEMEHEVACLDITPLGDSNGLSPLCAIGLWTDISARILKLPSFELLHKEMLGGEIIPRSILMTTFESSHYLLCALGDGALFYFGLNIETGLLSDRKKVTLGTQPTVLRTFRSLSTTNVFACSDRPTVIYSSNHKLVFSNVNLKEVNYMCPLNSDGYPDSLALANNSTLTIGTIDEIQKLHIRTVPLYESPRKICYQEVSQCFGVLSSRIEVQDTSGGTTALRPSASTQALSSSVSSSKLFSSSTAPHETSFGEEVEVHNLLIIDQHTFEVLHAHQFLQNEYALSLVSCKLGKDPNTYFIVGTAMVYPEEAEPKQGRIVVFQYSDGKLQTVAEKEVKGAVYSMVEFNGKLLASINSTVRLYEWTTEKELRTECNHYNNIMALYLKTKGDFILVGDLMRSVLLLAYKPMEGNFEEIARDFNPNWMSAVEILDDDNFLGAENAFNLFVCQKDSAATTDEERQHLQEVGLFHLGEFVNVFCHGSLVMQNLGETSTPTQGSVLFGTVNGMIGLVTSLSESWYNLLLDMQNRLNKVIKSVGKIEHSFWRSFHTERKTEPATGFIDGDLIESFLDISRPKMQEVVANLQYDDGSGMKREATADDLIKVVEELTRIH
How it was run: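 Background fluorescence is reduced by reading 70 μs after excitation, and complex formation is followed as the 520:490 nm fluorescence ratio.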

[1] = tested on: cyclin K–eGFP degradation reporter; assay: Cyclin K reporter stability analysis (dual-color cyclin K–eGFP reporter); assay type: cell-based, human
How it was run: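 A 5 h treatment of HEK293T–Cas9 cells expressing the degradation reporter preceded flow cytometry; eGFP over mCherry, normalized to DMSO.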

[2] = compound concentration 79.2001 nM
[3] = compound concentration 158.4 nM
[4] = compound concentration 309.6 nM
[5] = compound concentration 626.401 nM
[6] = compound concentration 1252.8 nM
[7] = compound concentration 9936.01 nM
[8] = compound concentration 20016 nM
[9] = Supplementary Table 2, HEK293T cycK-eGFP reporter, 5 h, read-out: Cellular assays DC50
[10] = in vitro complex formation, 50 nM CDK12–cyclin K, 100 nM DDB1, text and figures, read-out: TR-FRET EC50
[11] = sheet MOESM7, read-out: log TR-FRET EC50 (converted)
[12] = source data sheet correlations, read-out: TR-FRET EC50
[13] = source data sheet correlations, read-out: DC50

Compound	EC50 (HEK293T cells) [nM]	Toxicity rescue (HEK293T cells) [%]	TR-FRET signal at compound concentration 4.68 nM (CDK12–cyclin K and DDB1; compound concentration 4.68 nM)	TR-FRET signal at compound concentration 21.6 nM (CDK12–cyclin K and DDB1; compound concentration 21.6 nM)	TR-FRET signal at compound concentration 36 nM (CDK12–cyclin K and DDB1; compound concentration 36 nM)	TR-FRET signal at compound concentration 79.2001 nM (CDK12–cyclin K and DDB1; [2])	TR-FRET signal at compound concentration 158.4 nM (CDK12–cyclin K and DDB1; [3])	TR-FRET signal at compound concentration 309.6 nM (CDK12–cyclin K and DDB1; [4])	TR-FRET signal at compound concentration 626.401 nM (CDK12–cyclin K and DDB1; [5])	TR-FRET signal at compound concentration 1252.8 nM (CDK12–cyclin K and DDB1; [6])	TR-FRET signal at compound concentration 2448 nM (CDK12–cyclin K and DDB1; compound concentration 2448 nM)	TR-FRET signal at compound concentration 9936.01 nM (CDK12–cyclin K and DDB1; [7])	TR-FRET signal at compound concentration 20016 nM (CDK12–cyclin K and DDB1; [8])	DC50 [1, 9] [nM]	EC50 (CDK12–cyclin K and DDB1; [10]) [nM]	EC50 (CDK12–cyclin K and DDB1; [11]) [nM]	EC50 (CDK12–cyclin K and DDB1; [12]) [nM]	DC50 [1, 13] [nM]	other results
CN1CC[C@H](c2c(O)cc(O)c3c(=O)cc(-c4ccccc4Cl)oc23)[C@H](O)C1 [Flavopiridol, reference compound]	395	1	0.2594 and 0.2805 and 0.1719 and 0.175	0.4135 and 0.429 and 0.2939 and 0.3262	0.6079 and 0.623 and 0.4905 and 0.5031	0.8256 and 0.8685 and 0.6858 and 0.596	0.9273 and 1.013 and 0.793 and 0.779	0.9662 and 1.065 and 0.8707 and 0.8846	1.035 and 1.155 and 0.9082 and 0.902	1.099 and 1.27 and 0.978 and 0.9866	1.138 and 1.2612 and 0.9975 and 0.9532	1.131 and 1.306 and 0.9937 and 0.9375	1.0554 and 1.222 and 0.9378 and 0.9067	> 10000	–	–	–	–	–
COC[C@@H](C)N[C@H]1CC[C@H](Nc2cc(-c3cccc(NCC4(C#N)CCOCC4)n3)c(Cl)cn2)CC1 [NVP-2, reference compound]	23	-22	0.1362 and 0.1646	0.1797 and 0.2051	0.2299 and 0.264	0.275 and 0.3223	0.3283 and 0.3614	0.3492 and 0.3941	0.3927 and 0.4325	0.4009 and 0.4489	0.4033 and 0.4482	0.3857 and 0.4199	0.3623 and 0.3979	> 10000	62 ± 13	–	–	–	–
CC(C)(C)c1cnc(CSc2cnc(NC(=O)C3CCNCC3)s2)o1 [SNS032, reference compound]	265	-22	–	–	–	–	–	–	–	–	–	–	–	> 10000	–	–	–	–	% MLN4924 rescue (HEK293T cells; PCA input): 0%; TR-FRET signal (CDK12–cyclin K and DDB1; compound concentration 4.68 nM): 0.1508 and 0.1736; TR-FRET signal (CDK12–cyclin K and DDB1; compound concentration 21.6 nM): 0.2014 and 0.2318; TR-FRET signal (CDK12–cyclin K and DDB1; compound concentration 36 nM): 0.2617 and 0.2904; TR-FRET signal (CDK12–cyclin K and DDB1; [2]): 0.3013 and 0.3457; TR-FRET signal (CDK12–cyclin K and DDB1; [3]): 0.3207 and 0.3602; TR-FRET signal (CDK12–cyclin K and DDB1; [4]): 0.329 and 0.3662; TR-FRET signal (CDK12–cyclin K and DDB1; [5]): 0.3309 and 0.3799; TR-FRET signal (CDK12–cyclin K and DDB1; [6]): 0.346 and 0.4035; TR-FRET signal (CDK12–cyclin K and DDB1; compound concentration 2448 nM): 0.3618 and 0.4046; TR-FRET signal (CDK12–cyclin K and DDB1; [7]): 0.3822 and 0.42; TR-FRET signal (CDK12–cyclin K and DDB1; [8]): 0.3638 and 0.4143; DDB1–CDK12 complex formation, result in words (CDK12–cyclin K and DDB1; in vitro TR-FRET): no gain-of-function activity
CN(C)C/C=C/C(=O)Nc1ccc(C(=O)N2CCC[C@@H](Nc3ncc(Cl)c(-c4c[nH]c5ccccc45)n3)C2)cc1 [THZ531, reference compound]	271	-22	0.1294 and 0.1297	0.1203 and 0.1454	0.1008 and 0.09563	0.09205 and 0.08033	0.08734 and 0.07305	0.08584 and 0.06932	0.07997 and 0.06847	0.0797 and 0.06911	0.07318 and 0.06928	0.07478 and 0.06588	0.07606 and 0.06434	> 10000	–	–	–	–	–
CC[C@H](CO)Nc1nc(NCc2ccc(-c3ccccn3)c(=O)[nH]2)c2ncn(C(C)C)c2n1 [WX3]	179	954	–	–	–	–	–	–	–	–	–	–	–	–	21 ± 1	21.4	21.4	23	TR-FRET signal at compound concentration (CDK12–cyclin K and DDB1; compound concentration 0.468 nM): 0.2972 and 0.3391; TR-FRET signal at compound concentration (CDK12–cyclin K and DDB1; compound concentration 2.16 nM): 0.4654 and 0.4243; TR-FRET signal at compound concentration (CDK12–cyclin K and DDB1; compound concentration 3.6 nM): 0.6432 and 0.6311; TR-FRET signal at compound concentration (CDK12–cyclin K and DDB1; compound concentration 7.92001 nM): 1.023 and 1.017; TR-FRET signal at compound concentration (CDK12–cyclin K and DDB1; compound concentration 15.84 nM): 1.68 and 1.67; TR-FRET signal at compound concentration (CDK12–cyclin K and DDB1; compound concentration 30.96 nM): 2.537 and 2.526; TR-FRET signal at compound concentration (CDK12–cyclin K and DDB1; compound concentration 62.6401 nM): 3.223 and 3.119; TR-FRET signal at compound concentration (CDK12–cyclin K and DDB1; compound concentration 125.28 nM): 3.664 and 3.458; TR-FRET signal at compound concentration (CDK12–cyclin K and DDB1; compound concentration 244.8 nM): 3.773 and 3.684; TR-FRET signal at compound concentration (CDK12–cyclin K and DDB1; compound concentration 993.601 nM): 3.764 and 3.722; TR-FRET signal at compound concentration (CDK12–cyclin K and DDB1; compound concentration 2001.6 nM): 3.801 and 3.784
CC[C@H](CO)Nc1nc(NCc2cnc(-c3ccccn3)cc2C2OCCO2)c2ncn(C(C)C)c2n1 [WX4]	1180	432	–	–	–	–	–	–	–	–	–	–	–	–	79 ± 6	78.5	78.5	365	TR-FRET signal at compound concentration (CDK12–cyclin K and DDB1; compound concentration 4.68 nM): 0.2788 and 0.2836; TR-FRET signal at compound concentration (CDK12–cyclin K and DDB1; compound concentration 21.6 nM): 0.5021 and 0.5027; TR-FRET signal at compound concentration (CDK12–cyclin K and DDB1; compound concentration 36 nM): 0.8511 and 0.8473; TR-FRET signal at compound concentration (CDK12–cyclin K and DDB1; [2]): 1.261 and 1.263; TR-FRET signal at compound concentration (CDK12–cyclin K and DDB1; [3]): 1.515 and 1.577; TR-FRET signal at compound concentration (CDK12–cyclin K and DDB1; [4]): 1.862 and 1.944; TR-FRET signal at compound concentration (CDK12–cyclin K and DDB1; [5]): 2.0566 and 2.128; TR-FRET signal at compound concentration (CDK12–cyclin K and DDB1; [6]): 2.108 and 2.242; TR-FRET signal at compound concentration (CDK12–cyclin K and DDB1; compound concentration 2448 nM): 2.161 and 2.2916; TR-FRET signal at compound concentration (CDK12–cyclin K and DDB1; [7]): 2.174 and 2.318; TR-FRET signal at compound concentration (CDK12–cyclin K and DDB1; [8]): 2.132 and 2.191
